Where two headings read alike, the source gives them in different places. No end group written: not given here.
Key:
[1] = test system: αLβ2-mediated adhesion of Mn++-activated H9 cells to ICAM-1; experiment: Cell adhesion assay: adhesion of Mn2+-activated H9 cells to ICAM-1-Fc; assay type: cell-based, human; details: for blocking of adhesion (in words): at 100 μM; for inhibition of cell adhesion to ICAM-1 (in words): Mn++-activated H9 cells, cell-permeable fusion peptide
Description: The human T lymphoma cell line H9, was purchased from the American Type Culture Collection, Rockville, Md. It was cultured at 37° C. in 1640 medium supplemented with 50 U/ml penicillin, 50 μg/ml streptomycin, 200 μg/ml L-glutamine, 10% (v/v) FCS and 0.05 mM β-mercaptoethanol. All synthetic peptides were custom made by Mimotopes Pty Ltd., Victoria, Australia. The β2cyt peptides were N-terminally fused during synthesis to biotinylated penetratin (RQIKIWFQNRRMKWKK—Seq ID No. 22) or to a biotinylated D-isomeric form of an R9 polymer (Seq ID No. 32) to render them cell-permeable.
The soluble ICAM-1-Fc chimera was produced using the glutamine synthetase gene amplification system. The extracellular portions of human ICAM-1 fused to the Fc domain of human IgG1 were expressed from the pEE14 vector (kindly provided by Dr Chris Bebbington, Celltech Ltd, UK) in CHO K1 cells as described previously (18).
Lab-Tek 16-well glass slides (Nunc) or flat-bottom 96-well plates (Nunc Maxisorp) were coated overnight at 4° C. with purified ICAM-1-Fc at 10 μg/well in 100 μl of 0.1 M carbonate buffer (pH 9.5). After washing plates were blocked with 100% heat-inactivated FCS, and washed with Hanks balanced salt solution (HBSS) containing 10 mM Hepes, 2 mM Ca^2+ and 2 mM Mn^2+. H9 cells were either left unlabeled or labeled with the fluorescent dye chloromethyl fluorescein diacetate (CMFDA; Molecular Probes, Oregon). For peptide inhibition studies, H9 cells were preincubated with peptide in serum-free medium for 30 min at 37° C. and activated by suspension in an Mn^2+-containing buffer (HBSS: 10 mM Hepes containing 2 mM Ca^2+, 2 mM Mn^2+, and 2% FCS). Human IgG1 Ab (10 μg/ml; Sigma) was added to prevent nonspecific capture of cells to the Fc portion of […]. Cells were checked for viability by trypan blue exclusion, added to wells (10^6cells/well), and incubated for 30 min at 37° C. in a humidified atmosphere of 5% CO2. Non-adherent cells were removed by inverse centrifugation of the plates at 70×g for 5 min followed by gentle pipette washing. The number of unlabeled adherent cells was determined by counting the number of adherent cells in four independent fields at 100× magnification under an inverted microscope. The fluorescence of CMFDA-labeled adherent cells was measured using a VICTOR1420 multilabel counter (Wallac). Representative data are reported as mean±SD of two independent experiments performed in duplicate.

[2] = at 6 μM, H9 cells to ICAM-1, r9 fusion
[3] = at 25 μM, Mn++-activated H9 cells to ICAM-1, fused to r9
[4] = at 50 μM, Mn++-activated H9 cells to ICAM-1, fused to r9

Row | Substance | inhibition of adhesion [1, 2] | blocking of adhesion (in words) ([1]; H9 cells to ICAM-1, r9 fusion) | inhibition of cell adhesion to ICAM-1 (in words) [1] | inhibition of adhesion [1, 3] | inhibition of adhesion [1, 4] | other results
1 | KALIHLSDLREY | – | – | – | – | – | uptake of penetratin fusion peptide into cells (H9 cells): readily taken up
2 | r9-NPLFKS: β2cyt hexamer synthesized as fusion with the r9 carrier peptide (not fully specified (N-terminus); printed as r9-NPLFKS) | 24% | almost completely blocked adhesion | – | – | – | –
3 | YRRFEKEKLKSQWNND | – | – | – | – | – | uptake of penetratin fusion peptide into cells (H9 cells; human cell line H9, biotinylated peptide detected with streptavidin-FITC): readily taken up
4 | NPLFKSATTT (not fully specified (N-terminus); also: biotinylated r9 carrier, attachment not given here) [β2cyt peptide fused to r9 (biotinylated D-isomeric nine-arginine polymer) to render it cell-permeable] | – | – | active | ~50% | ~80% | –
5 | r9-NPKF: core talin-binding motif of β2cyt synthesized as fusion with the r9 carrier peptide (not fully specified (N-terminus); printed as r9-NPKF) | 82% | almost completely blocked adhesion | – | – | – | –
6 | VMNPKFAES (not fully specified (N-terminus); also: biotinylated r9 carrier, attachment not given here) [β2cyt peptide fused to r9 (biotinylated D-isomeric nine-arginine polymer) to render it cell-permeable] | – | – | active | ~50% | ~80% | –

From patent US20090118174A1, “Novel peptides and methods for the treatment of inflammatory disorders” (Auckland Uniservices Limited, priority 2005, published 2009)
